Test results: paper PMC7024211, “Antifouling Napyradiomycins from Marine-Derived Actinomycetes Streptomyces aculeolatus” (Marine Drugs, 2020)

Experiments:
C. marina [1] = experiment: Bacterial growth inhibition assay (OD600nm); type: cell-based, Cobetia marina
Excerpt: (§1) Five marine bacterial species were used as models to assess antimicrofouling activity. The biofilm-forming marine bacteria Marinobacter hydrocarbonoclasticus DSM 8798 (ATCC 49840), Cobetia marina DSM 4741, Phaeobacter inhibens DSM 17,395, and Pseusooceanicola batsensis DSM 15,984 were obtained from DSMZ (Leibniz Institute DSMZ—German collection of Microorganisms and Cell Cultures) and Micrococcus luteus. Cultures were routinely grown in liquid marine broth (Carl Roth GmbH, Karlsruhe, Germany) with agitation (180 rpm) or on agar-supplemented marine broth, at 28 °C (M. hydrocarbonoclasticus and C. marina) or 30 °C (P. inhibens and P. batsensis). M. luteus was maintained in Brain Heart Infusion broth (BHI, Becton Dickinson, GmbH, Heidelberg, Germany) with agitation (180 rpm) or on agar-supplemented BHI, at 37 °C.
The antibacterial activity of the napyradiomycins (1–12) was assessed in 96-well polystyrene flat bottom microplates (Nunclon Delta Surface, Thermo Scientific, Roskilde, Denmark) following previously reported procedures. […] After 24 h (M. hydrocarbonoclasticus, C. marina) or 48 h (P. batsensis, P. inhibens, M. luteus) incubation, the OD600nm was determined (Molecular Devices, Spectra Max 190). […] The percentage of growth inhibition was calculated as the amount of growth relative to that of the bacterial species without added compounds (with the same amount of DMSO added). CuSO4 (5 μM), a potent antifouling agent used in antifouling paints, was used as reference.
(§2) All assays were performed in triplicate, and results are representative of the average and standard error of the mean (SEM). Statistical analysis was performed in GraphPad Prism 8.0.2 (San Diego, CA, USA), using one-way ANOVA followed by a Dunnett’s multiple comparisons test against the control (species grown with the same amount of DMSO added).

P. batsensis = experiment: Bacterial growth inhibition assay (OD600nm); type: cell-based, Pseudooceanicola batsensis
Method: As a first screening approach, liquid cultures of M. hydrocarbonoclasticus, and C. marina in a 96-well format were analyzed for bacterial growth inhibition by percent decrease in OD600 after incubation with napyradiomycins (1–12) at 31.25 µg/mL.
as §1
The antibacterial activity of the napyradiomycins (1–12) was assessed in 96-well polystyrene flat bottom microplates (Nunclon Delta Surface, Thermo Scientific, Roskilde, Denmark) following previously reported procedures. For initial screening, bacterial overnight cultures were diluted to an optical density (OD600nm) of 0.2 and incubated statically at 28 °C (M. hydrocarbonoclasticus, C. marina), 30 °C (P. inhibens, P. batsensis) or 37 °C (M. luteus) in a 96-well microplate in the presence or absence of 31.25 µg/mL of the napyradiomycins, solubilized in DMSO. After 24 h (M. hydrocarbonoclasticus, C. marina) or 48 h (P. batsensis, P. inhibens, M. luteus) incubation, the OD600nm was determined (Molecular Devices, Spectra Max 190). […] The percentage of growth inhibition was calculated as the amount of growth relative to that of the bacterial species without added compounds (with the same amount of DMSO added). CuSO4 (5 μM), a potent antifouling agent used in antifouling paints, was used as reference.
as §2

C. marina [2] = experiment: Biofilm inhibition assay (crystal violet); type: cell-based, Cobetia marina; conditions: 31.25 µg/mL
Method: (§3) In a 96-well plate, biofilm grown cultures of M. hydrocarbonoclasticus and C. marina were incubated with napyradiomycins (1–12) at a concentration of 31.25 µg/mL. After discarding the media, biofilm inhibition was determined from OD600 measurements of crystal violet stained cells resuspended from the plate bottom with acetic acid.
as §1
(§4) The antibiofilm activity of napyradiomycins (1–12) against the five marine bacterial species was assessed in 96-well polystyrene flat bottom microplates (Nunclon Delta Surface, Thermo Scientific, Roskilde, Denmark) as previously reported. For initial screening, bacterial overnight cultures were diluted to an optical density (OD600nm) value of 0.2 and incubated statically at 28 °C (M. hydrocarbonoclasticus, C. marina), 30 °C (P. inhibens, P. batsensis) or 37 °C (M. luteus) in the 96-well microplate in the presence or absence of 31.25 µg/mL of napyradiomycins, solubilized in DMSO. After 24 h (M. hydrocarbonoclasticus, C. marina) or 48 h (P. batsensis, P. inhibens, M. luteus) incubation, the OD600nm was determined. The planktonic cells and media were discarded, and the wells were washed twice with deionized water. The biofilm was fixed for 1 h at 60 °C and stained with crystal violet 0.06% for 10 min. The dye was discarded, and the wells were again washed twice with deionized water. The stained biofilm was solubilized with 30% acetic acid and the OD600nm was determined. […] The percentage of biofilm inhibition was calculated as the amount of biofilm relative to that of the bacterial species without added compounds (with the same amount of DMSO added). CuSO4 (5 μM), a potent antifouling agent used in antifouling paints, was used as reference.
as §2, with “8.0.2,” for “8.0.2 (San Diego, CA, USA),”

P. inhibens = experiment: Biofilm inhibition assay (crystal violet); type: cell-based, Phaeobacter inhibens; conditions: 31.25 µg/mL
Method: as §3, §1, §4
All assays were performed in triplicate, and results are representative of the average and standard error of the mean (SEM). […]

`CC(C)=CCCC(C)=CCC12OC(C)(C)C(Cl)CC1(Cl)C(=O)c1c(O)cc(O)cc1C2=O` (centres unmarked) [Napyradiomycin 1, napyradiomycin A1] was tested, and the “% growth inhibition C. marina” value (C. marina [1]; 0.98 µg/mL) was “N.I”, the “% growth inhibition C. marina” value (C. marina [1]; 1.95 µg/mL) was “N.I” and the inhibition at 3.91 µg/mL (C. marina [1]; Cobetia marina, 3.91 µg/mL) was 5.5 ± 0.8%. For the same molecule, the inhibition at 7.81 µg/mL (C. marina [1]; Cobetia marina, 7.81 µg/mL) was 18.2 ± 0.7%, the inhibition at 15.6 µg/mL (C. marina [1]; Cobetia marina, 15.60 µg/mL) was 15.3 ± 0.7% and the inhibition at 31.25 µg/mL (C. marina [1]; Cobetia marina, 31.25 µg/mL) was 19.8 ± 0.6%. The “% growth inhibition P. batsensis” value (P. batsensis; 0.98 µg/mL) was “N.I”, the “% growth inhibition P. batsensis” value (P. batsensis; 1.95 µg/mL) was “N.I” and the “% growth inhibition P. batsensis” value (P. batsensis; 3.91 µg/mL) was “N.I”. For the same molecule, the inhibition at 7.81 µg/mL (P. batsensis; Pseudooceanicola batsensis, 7.81 µg/mL) was 47.4 ± 0.3%, the inhibition at 15.6 µg/mL (P. batsensis; Pseudooceanicola batsensis, 15.60 µg/mL) was 62.7 ± 0.6% and the inhibition at 31.25 µg/mL (P. batsensis; Pseudooceanicola batsensis, 31.25 µg/mL) was 53.9 ± 0.3%. The “% Biofilm Inhibition ± SEM C. marina” value (C. marina [2]) was “N.I” and the “% Biofilm Inhibition ± SEM P. inhibens” value (P. inhibens) was “N.I”.
